According to the kinase profiling compilation of Christmann-Franck et al. (2016):

Columns and labels:
Test in all cases: KINOMEscan competition binding
Details in all cases: compound 10.0 µM
MAPK12 (human) = MAPK12 (human) (UniProt P53778)
LIMK1 (human) = LIMK1 (human) (UniProt P53667)
TTK (human) = TTK (human) (UniProt P33981)
PIK3CD (human) = PIK3CD (human) (UniProt O00329)
TIE1 (human) = TIE1 (human) (UniProt P35590)
EPHA6 (human) = EPHA6 (human) (UniProt Q9UF33)
MAPK14 (human) = MAPK14 (human) (UniProt Q16539)
CDKL1 (human) = CDKL1 (human) (UniProt Q00532)
PIK3C2G (human) = PIK3C2G (human) (UniProt O75747)
Chain of PIK3C2G (human) (O75747 whole entry, looked up): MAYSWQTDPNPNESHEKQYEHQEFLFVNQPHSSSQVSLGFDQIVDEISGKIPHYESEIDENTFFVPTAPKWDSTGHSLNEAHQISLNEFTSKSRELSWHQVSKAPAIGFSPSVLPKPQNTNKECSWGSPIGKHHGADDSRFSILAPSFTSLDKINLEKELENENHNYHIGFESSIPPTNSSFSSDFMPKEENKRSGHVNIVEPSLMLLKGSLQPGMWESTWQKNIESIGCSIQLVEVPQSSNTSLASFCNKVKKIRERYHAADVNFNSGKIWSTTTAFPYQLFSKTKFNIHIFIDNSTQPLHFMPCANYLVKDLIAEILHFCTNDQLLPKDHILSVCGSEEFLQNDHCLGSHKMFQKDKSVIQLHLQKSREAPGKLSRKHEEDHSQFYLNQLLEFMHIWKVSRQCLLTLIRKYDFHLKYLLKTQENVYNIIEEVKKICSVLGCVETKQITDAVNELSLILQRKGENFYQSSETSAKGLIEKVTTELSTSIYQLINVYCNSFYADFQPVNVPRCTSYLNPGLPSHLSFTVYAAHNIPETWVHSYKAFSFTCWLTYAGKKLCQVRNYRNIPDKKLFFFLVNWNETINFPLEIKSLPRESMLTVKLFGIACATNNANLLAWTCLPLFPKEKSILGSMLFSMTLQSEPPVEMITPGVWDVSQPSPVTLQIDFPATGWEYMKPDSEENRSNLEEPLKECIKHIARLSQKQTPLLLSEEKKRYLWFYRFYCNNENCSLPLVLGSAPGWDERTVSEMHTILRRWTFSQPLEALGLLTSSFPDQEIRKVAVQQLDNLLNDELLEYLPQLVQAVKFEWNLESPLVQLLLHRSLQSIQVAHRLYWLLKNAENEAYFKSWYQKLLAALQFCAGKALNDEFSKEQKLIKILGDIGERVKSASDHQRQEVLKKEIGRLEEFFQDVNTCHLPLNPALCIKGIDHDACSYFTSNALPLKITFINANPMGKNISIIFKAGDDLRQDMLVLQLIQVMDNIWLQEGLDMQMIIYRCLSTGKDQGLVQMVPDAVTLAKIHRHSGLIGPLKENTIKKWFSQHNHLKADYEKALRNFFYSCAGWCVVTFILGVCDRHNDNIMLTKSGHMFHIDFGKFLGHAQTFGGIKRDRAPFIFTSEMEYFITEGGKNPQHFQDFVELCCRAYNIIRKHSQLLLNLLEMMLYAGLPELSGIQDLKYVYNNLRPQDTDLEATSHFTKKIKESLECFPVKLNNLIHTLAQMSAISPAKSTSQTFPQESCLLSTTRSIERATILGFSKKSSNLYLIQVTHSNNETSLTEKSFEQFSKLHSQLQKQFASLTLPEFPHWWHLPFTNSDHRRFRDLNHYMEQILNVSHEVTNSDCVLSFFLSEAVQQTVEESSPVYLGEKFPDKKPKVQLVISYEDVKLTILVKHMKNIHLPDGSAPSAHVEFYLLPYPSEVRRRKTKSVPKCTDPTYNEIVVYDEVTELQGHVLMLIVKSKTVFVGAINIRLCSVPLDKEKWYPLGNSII

NTRK3 (human) = NTRK3 (human) (UniProt Q16288)
MAPKAPK5 (human) = MAPKAPK5 (human) (UniProt Q8IW41)
Chain of MAPKAPK5 (human) (Q8IW41 whole entry, looked up): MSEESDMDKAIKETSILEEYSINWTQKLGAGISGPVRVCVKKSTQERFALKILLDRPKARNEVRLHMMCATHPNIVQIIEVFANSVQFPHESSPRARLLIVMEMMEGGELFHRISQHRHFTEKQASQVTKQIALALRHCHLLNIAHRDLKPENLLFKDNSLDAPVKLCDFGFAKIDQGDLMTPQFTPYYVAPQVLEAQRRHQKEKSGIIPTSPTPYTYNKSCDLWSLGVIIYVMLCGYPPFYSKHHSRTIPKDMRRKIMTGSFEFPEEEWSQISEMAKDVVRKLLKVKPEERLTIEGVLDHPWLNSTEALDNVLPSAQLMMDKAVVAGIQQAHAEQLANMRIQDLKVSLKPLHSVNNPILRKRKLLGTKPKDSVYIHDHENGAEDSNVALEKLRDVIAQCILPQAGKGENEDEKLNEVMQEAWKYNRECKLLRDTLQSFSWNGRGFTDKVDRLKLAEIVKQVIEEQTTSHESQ

CDK16 (human) = CDK16 (human) (UniProt Q00536)
CAMK2A (human) = CAMK2A (human) (UniProt Q9UQM7)
CSNK2A1 (human) = CSNK2A1 (human) (UniProt P68400)
NEK1 (human) = NEK1 (human) (UniProt Q96PY6)
NTRK2 (human) = NTRK2 (human) (UniProt Q16620)
PIM2 (human) = PIM2 (human) (UniProt Q9P1W9)
Chain of PIM2 (human) (Q9P1W9 whole entry, looked up): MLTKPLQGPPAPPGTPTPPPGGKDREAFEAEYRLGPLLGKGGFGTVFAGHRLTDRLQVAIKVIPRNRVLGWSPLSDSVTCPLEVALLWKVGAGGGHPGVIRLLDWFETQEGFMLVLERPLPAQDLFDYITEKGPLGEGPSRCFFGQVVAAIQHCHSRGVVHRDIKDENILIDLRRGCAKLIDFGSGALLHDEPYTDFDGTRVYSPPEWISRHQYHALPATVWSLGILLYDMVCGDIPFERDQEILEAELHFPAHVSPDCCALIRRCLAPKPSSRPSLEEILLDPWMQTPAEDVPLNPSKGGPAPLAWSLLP

DCLK2 (human) = DCLK2 (human) (UniProt Q8N568)
STK35 (human) = STK35 (human) (UniProt Q8TDR2)
CDKL5 (human) = CDKL5 (human) (UniProt O76039)
PRKACA (human) = PRKACA (human) (UniProt P17612)
MAPKAPK2 (human) = MAPKAPK2 (human) (UniProt P49137)
STK36 (human) = STK36 (human) (UniProt Q9NRP7)
DAPK1 (human) = DAPK1 (human) (UniProt P53355)
EPHA4 (human) = EPHA4 (human) (UniProt P54764)
HCK (human) = HCK (human) (UniProt P08631)
CSNK1A1L (human) = CSNK1A1L (human) (UniProt Q8N752)
NEK2 (human) = NEK2 (human) (UniProt P51955)
Chain of NEK2 (human) (P51955 whole entry, looked up): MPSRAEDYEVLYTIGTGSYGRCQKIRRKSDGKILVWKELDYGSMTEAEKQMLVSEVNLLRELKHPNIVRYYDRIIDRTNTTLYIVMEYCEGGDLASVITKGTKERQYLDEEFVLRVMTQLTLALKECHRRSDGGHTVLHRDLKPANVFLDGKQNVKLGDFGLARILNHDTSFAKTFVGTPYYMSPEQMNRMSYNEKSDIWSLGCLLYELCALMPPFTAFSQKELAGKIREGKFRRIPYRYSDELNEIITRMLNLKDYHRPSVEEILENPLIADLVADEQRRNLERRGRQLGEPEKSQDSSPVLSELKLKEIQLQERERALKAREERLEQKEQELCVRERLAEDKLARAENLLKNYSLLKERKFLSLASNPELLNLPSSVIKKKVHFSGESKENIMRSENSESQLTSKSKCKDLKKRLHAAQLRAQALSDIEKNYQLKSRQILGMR

MAK (human) = MAK (human) (UniProt P20794)
FLT4 (human) = FLT4 (human) (UniProt P35916)
MUSK (human) = MUSK (human) (UniProt O15146)
GSK3A (human) = GSK3A (human) (UniProt P49840)
SIK2 (human) = SIK2 (human) (UniProt Q9H0K1)
Chain of SIK2 (human) (Q9H0K1 whole entry, looked up): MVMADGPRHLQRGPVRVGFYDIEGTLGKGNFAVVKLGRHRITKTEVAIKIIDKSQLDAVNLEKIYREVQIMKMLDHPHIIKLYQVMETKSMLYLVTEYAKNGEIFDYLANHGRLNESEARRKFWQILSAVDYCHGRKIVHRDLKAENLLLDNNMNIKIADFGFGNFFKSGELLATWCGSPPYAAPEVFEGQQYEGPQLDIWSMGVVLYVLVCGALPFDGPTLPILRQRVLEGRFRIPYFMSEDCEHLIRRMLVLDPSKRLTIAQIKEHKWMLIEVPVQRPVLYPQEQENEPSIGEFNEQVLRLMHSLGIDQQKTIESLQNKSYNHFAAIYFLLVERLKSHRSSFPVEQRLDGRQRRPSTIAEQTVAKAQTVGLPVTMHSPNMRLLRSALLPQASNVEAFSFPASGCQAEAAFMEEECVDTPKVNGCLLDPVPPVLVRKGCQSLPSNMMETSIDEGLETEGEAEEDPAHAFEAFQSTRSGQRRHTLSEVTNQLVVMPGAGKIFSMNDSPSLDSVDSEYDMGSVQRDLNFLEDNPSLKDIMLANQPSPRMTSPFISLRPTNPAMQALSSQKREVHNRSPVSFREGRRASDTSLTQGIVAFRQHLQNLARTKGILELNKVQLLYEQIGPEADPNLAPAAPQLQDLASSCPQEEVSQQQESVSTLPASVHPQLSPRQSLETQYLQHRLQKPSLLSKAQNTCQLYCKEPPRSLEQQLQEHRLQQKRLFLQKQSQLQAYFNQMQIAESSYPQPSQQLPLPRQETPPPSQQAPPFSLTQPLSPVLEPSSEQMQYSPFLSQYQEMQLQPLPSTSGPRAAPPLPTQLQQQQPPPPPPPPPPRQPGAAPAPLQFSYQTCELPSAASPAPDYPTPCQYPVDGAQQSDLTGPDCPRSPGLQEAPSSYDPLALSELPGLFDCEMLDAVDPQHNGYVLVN

MAP2K4 (human) = MAP2K4 (human) (UniProt P45985)
DCLK3 (human) = DCLK3 (human) (UniProt Q9C098)
CLK3 (human) = CLK3 (human) (UniProt P49761)
EGFR (human) = EGFR (human) (UniProt P00533)
Chain of EGFR (human) (P00533 whole entry, looked up): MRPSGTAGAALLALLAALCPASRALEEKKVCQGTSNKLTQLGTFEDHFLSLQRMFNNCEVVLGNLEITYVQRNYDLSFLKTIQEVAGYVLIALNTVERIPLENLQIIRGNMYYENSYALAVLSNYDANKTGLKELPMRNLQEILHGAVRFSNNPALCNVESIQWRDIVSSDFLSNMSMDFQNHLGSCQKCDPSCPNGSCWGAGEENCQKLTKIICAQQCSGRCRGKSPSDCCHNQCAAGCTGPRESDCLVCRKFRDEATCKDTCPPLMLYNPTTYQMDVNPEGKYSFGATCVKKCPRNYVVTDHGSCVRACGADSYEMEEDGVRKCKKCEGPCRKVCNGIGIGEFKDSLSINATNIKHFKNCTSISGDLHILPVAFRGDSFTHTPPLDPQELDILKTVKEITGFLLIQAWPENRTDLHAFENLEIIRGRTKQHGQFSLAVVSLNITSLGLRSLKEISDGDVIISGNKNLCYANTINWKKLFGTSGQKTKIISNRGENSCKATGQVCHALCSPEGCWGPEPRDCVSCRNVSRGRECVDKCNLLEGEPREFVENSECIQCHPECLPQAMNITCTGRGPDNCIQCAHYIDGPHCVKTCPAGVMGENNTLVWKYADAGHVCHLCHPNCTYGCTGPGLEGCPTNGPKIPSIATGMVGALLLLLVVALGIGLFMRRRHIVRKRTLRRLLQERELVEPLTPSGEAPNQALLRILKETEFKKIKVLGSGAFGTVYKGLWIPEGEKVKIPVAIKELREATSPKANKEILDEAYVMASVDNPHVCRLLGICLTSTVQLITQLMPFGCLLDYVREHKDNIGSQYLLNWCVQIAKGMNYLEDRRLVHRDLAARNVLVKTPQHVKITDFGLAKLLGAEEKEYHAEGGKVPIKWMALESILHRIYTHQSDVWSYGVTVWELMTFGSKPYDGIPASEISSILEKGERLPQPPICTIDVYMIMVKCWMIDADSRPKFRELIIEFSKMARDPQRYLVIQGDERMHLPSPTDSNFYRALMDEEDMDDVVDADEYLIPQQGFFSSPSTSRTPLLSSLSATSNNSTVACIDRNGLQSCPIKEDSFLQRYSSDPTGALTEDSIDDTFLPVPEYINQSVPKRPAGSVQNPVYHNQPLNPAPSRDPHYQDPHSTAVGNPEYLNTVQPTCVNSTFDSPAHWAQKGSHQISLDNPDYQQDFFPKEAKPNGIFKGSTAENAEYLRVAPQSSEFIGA

ADCK4 (human) = ADCK4 (human) (UniProt Q96D53)
MAP3K10 (human) = MAP3K10 (human) (UniProt Q02779)
BMPR2 (human) = BMPR2 (human) (UniProt Q13873)

CN(C)C/C=C/C(=O)Nc1ccc(C(=O)Nc2cccc(Nc3nccc(-c4cccnc4)n3)c2)cc1
kinase still bound, per cent of control (MAPK12 (human)): 76% | kinase still bound, per cent of control (LIMK1 (human)): 60% | kinase still bound, per cent of control (TTK (human)): 77% | kinase still bound, per cent of control (PIK3CD (human)): 91% | kinase still bound, per cent of control (TIE1 (human)): 55% | kinase still bound, per cent of control (EPHA6 (human)): 90% | kinase still bound, per cent of control (MAPK14 (human)): 99% | kinase still bound, per cent of control (CDKL1 (human)): 41% | kinase still bound, per cent of control (PIK3C2G (human)): 100% | kinase still bound, per cent of control (NTRK3 (human)): 65% | kinase still bound, per cent of control (MAPKAPK5 (human)): 100% | kinase still bound, per cent of control (CDK16 (human)): 91% | kinase still bound, per cent of control (CAMK2A (human)): 54% | kinase still bound, per cent of control (CSNK2A1 (human)): 12% | kinase still bound, per cent of control (NEK1 (human)): 63% | kinase still bound, per cent of control (NTRK2 (human)): 69% | kinase still bound, per cent of control (PIM2 (human)): 100% | kinase still bound, per cent of control (DCLK2 (human)): 100% | kinase still bound, per cent of control (STK35 (human)): 80% | kinase still bound, per cent of control (CDKL5 (human)): 60% | kinase still bound, per cent of control (PRKACA (human)): 100% | kinase still bound, per cent of control (MAPKAPK2 (human)): 100% | kinase still bound, per cent of control (STK36 (human)): 99% | kinase still bound, per cent of control (DAPK1 (human)): 58% | kinase still bound, per cent of control (EPHA4 (human)): 100% | kinase still bound, per cent of control (HCK (human)): 100% | kinase still bound, per cent of control (CSNK1A1L (human)): 100% | kinase still bound, per cent of control (NEK2 (human)): 1.1% | kinase still bound, per cent of control (MAK (human)): 100% | kinase still bound, per cent of control (FLT4 (human)): 97% | kinase still bound, per cent of control (MUSK (human)): 61% | kinase still bound, per cent of control (GSK3A (human)): 26% | kinase still bound, per cent of control (SIK2 (human)): 90% | kinase still bound, per cent of control (MAP2K4 (human)): 9.8% | kinase still bound, per cent of control (DCLK3 (human)): 100% | kinase still bound, per cent of control (CLK3 (human)): 100% | kinase still bound, per cent of control (EGFR (human)): 100% | kinase still bound, per cent of control (ADCK4 (human)): 98% | kinase still bound, per cent of control (MAP3K10 (human)): 94% | kinase still bound, per cent of control (BMPR2 (human)): 100%

NC(=O)Nc1cc(-c2cccc(F)c2)sc1C(=O)N[C@@H]1CCCNC1
kinase still bound, per cent of control (MAPK12 (human)): 89% | kinase still bound, per cent of control (LIMK1 (human)): 62% | kinase still bound, per cent of control (TTK (human)): 12% | kinase still bound, per cent of control (PIK3CD (human)): 100% | kinase still bound, per cent of control (TIE1 (human)): 7.2% | kinase still bound, per cent of control (EPHA6 (human)): 8.2% | kinase still bound, per cent of control (MAPK14 (human)): 100% | kinase still bound, per cent of control (CDKL1 (human)): 46% | kinase still bound, per cent of control (PIK3C2G (human)): 64% | kinase still bound, per cent of control (NTRK3 (human)): 0.2% | kinase still bound, per cent of control (MAPKAPK5 (human)): 0.05% | kinase still bound, per cent of control (CDK16 (human)): 79% | kinase still bound, per cent of control (CAMK2A (human)): 3.6% | kinase still bound, per cent of control (CSNK2A1 (human)): 0.35% | kinase still bound, per cent of control (NEK1 (human)): 24% | kinase still bound, per cent of control (NTRK2 (human)): 0.35% | kinase still bound, per cent of control (PIM2 (human)): 57% | kinase still bound, per cent of control (DCLK2 (human)): 2.4% | kinase still bound, per cent of control (STK35 (human)): 1.1% | kinase still bound, per cent of control (CDKL5 (human)): 100% | kinase still bound, per cent of control (PRKACA (human)): 1.4% | kinase still bound, per cent of control (MAPKAPK2 (human)): 0% | kinase still bound, per cent of control (STK36 (human)): 74% | kinase still bound, per cent of control (DAPK1 (human)): 0.1% | kinase still bound, per cent of control (EPHA4 (human)): 3.4% | kinase still bound, per cent of control (HCK (human)): 0% | kinase still bound, per cent of control (CSNK1A1L (human)): 2.4% | kinase still bound, per cent of control (NEK2 (human)): 75% | kinase still bound, per cent of control (MAK (human)): 100% | kinase still bound, per cent of control (FLT4 (human)): 0% | kinase still bound, per cent of control (MUSK (human)): 18% | kinase still bound, per cent of control (GSK3A (human)): 100% | kinase still bound, per cent of control (SIK2 (human)): 2.6% | kinase still bound, per cent of control (MAP2K4 (human)): 2.2% | kinase still bound, per cent of control (DCLK3 (human)): 56% | kinase still bound, per cent of control (CLK3 (human)): 62% | kinase still bound, per cent of control (EGFR (human)): 0.25% | kinase still bound, per cent of control (ADCK4 (human)): 55% | kinase still bound, per cent of control (MAP3K10 (human)): 1.2% | kinase still bound, per cent of control (BMPR2 (human)): 3.4%
